Results from patent US6017956A, “N,N-disubstituted amic acid derivatives” (Banyu Pharmaceutical Co., Ltd., priority 1994, dated 2000).

What was measured:
[1] = test system: farnesyl-modification of Ras protein in NIH3T3 cells transformed by activated ras gene; assay: Inhibitory activities against farnesyl-modification of Ras protein in NIH3T3 cells transformed by activated ras gene; assay type: cell-based; conditions: Mus musculus, 24 hours, proportion of non-farnesyl-modified Ras protein by densitometer, read-out: 50% inhibitory concentrations against farnesyl-modification of Ras protein, IC50
Procedure: PHARMACOLOGICAL TEST EXAMPLE 2
(Inhibitory Activities Against Farnesyl-Modification of Ras Protein)
Using the compounds of the present invention, inhibitory activities against farnesyl-modification of Ras protein in NIH3T3 cells transformed by activated ras gene, were measured.
The NIH3T3 cells transformed by activated ras gene, were seeded on a culture plate and cultured for 3 days. Then, a compound of the present invention in a predetermined concentration was added to the culture. In accordance with the method disclosed in J. Biol. Chem., vol. 268, p. 18415 (1993), the cells were cultured for 24 hours and then taken off from the plate, and the cells were dissolved. After centrifugal separation for 5 minutes under 12000 g, the supernatant was used as a cell extract. The cell extract was subjected to SDS polyacrylamide gel electrophoresis to separate farnesyl-modified Ras protein and non-farnesyl-modified Ras protein. The protein on the gel was transferred onto a nitrocellulose membrane, and an anti-Ras protein antibody was reacted as a probe (primary antibody reaction). An anti-primary antibody, a peroxidase inclusion (secondary antibody), was reacted, and then Ras protein was detected by a chemical fluorescence enhancing kit. The proportion of non-farnesyl-modified Ras protein was quantified by a densitometer and taken as the inhibitory activity.
The 50% inhibitory concentrations (IC50 values) of the compounds of the present invention against farnesyl-modification of Ras protein as shown in Table

[2] = biological target: T1, protein-farnesyl transferase (PFT) (Rattus norvegicus, UniProt Q02293+Q04631); assay: Inhibitory activities against protein-farnesyl transferase; assay type: biochemical; conditions: PFT derived from rat brain; prenyl acceptor H-ras protein or biotin-added Lys-Thr-Ser-Cys-Val-Ile-Met; 37° C., 20 minutes; read-out: 50% inhibitory concentrations against PFT activities, IC50
T1 construct: PFT derived from rat brain; from tissue; host or cells: rat brain, soluble fraction (30-50% ammonium sulfate cut, Q-Sepharose fraction)
Procedure: Inhibitory activities against protein-farnesyl transferase
PFT was separated in such a manner that a soluble fraction of rat's brain was fractionated by means of 30%-50% saturated ammonium sulfate, further dialyzed and then subjected to column chromatography by Q-cephalose™ (manufactured by Pharmacia) (Reiss et al, Cell, vol. 62, p. 81-88 (1990)).
(2) Method for measuring PFT activities
Measurement of PFT activities was conducted by using, as a prenyl acceptor, H-ras protein or a substance that biotin was added to N-terminal of a peptide corresponding to a 7 amino acid residue at C terminal of K-rasB protein (biotin-added Lys-Thr-Ser-Cys-Val-Ile-Met) and, as a prenyl doner, [^3 H]-labeled farnesylpyrophosphate (FPP) (Reiss et al, Methods: A Companion to a Methods in Enzymology, vol. 1, No. 3, p. 241-245 (1990)). […]
The enzymatic reaction product containing H-ras protein as the prenyl acceptor, was analyzed by SDS-PAGE (sodium dodecylsulfate/polyacrylamide gel electrophoresis). […]
The measurement of PFT activities using H-ras protein as the prenyl receptor, was also analyzed by a rapid separate method. […]

SMILES	IC50 [1] [nM]	IC50 [2] [nM]
C[C@H]([C@H](Cc1ccc(C(=O)Nc2ccccc2)o1)c1ccc([N+](=O)[O-])cc1)N(Cc1ccc2ccccc2c1)C(=O)C(O)=C(CC(=O)O)C(=O)OC(C)(C)C (racemic) [Example 25, 3-tert-butoxycarbonyl-4-hydroxy-4-[N-[(1RS,2RS)-1-methyl-2-(4-nitrophenyl)-3-{5-(phenylcarbamoyl)-2-furyl}propyl]-N-(2-naphthylmethyl)carbamoyl]-3-butenoic acid]	21	–
C=CCOC(=O)C(CC(=O)O)=C(O)C(=O)N(Cc1ccc2ccccc2c1)[C@H](C)[C@H](Cc1ccc(C(=O)Nc2ccccc2)o1)c1ccc2c(c1)OCO2 (racemic) [Example 29, 3-allyloxycarbonyl-4-hydroxy-4-[N-[(1RS,2RS)-1-methyl-2-(3,4-methylenedioxyphenyl)-3-{5-(phenylcarbamoyl)-2-furyl}propyl]-N-(2-naphthylmethyl)carbamoyl]-3-butenoic acid]	4.7	–
CC(C)OC(=O)C(CCC(=O)O)=C(O)C(=O)N(Cc1ccc2ccccc2c1)[C@H](C)[C@H](Cc1ccc(C(=O)Nc2ccccc2)o1)c1ccc([N+](=O)[O-])cc1 (racemic) [Example 30, 5-hydroxy-4-isopropoxycarbonyl-5-[N-[(1RS,2RS)-1-methyl-2-(4-nitrophenyl)-3-{5-(phenylcarbamoyl)-2-furyl}propyl]-N-(2-naphthylmethyl)carbamoyl]-4-pentenoic acid]	21	–
C[C@H]([C@H](Cc1ccc(C(=O)Nc2ccccc2)o1)c1ccc([N+](=O)[O-])cc1)N(Cc1ccc2ccccc2c1)C(=O)CC(CC(=O)O)C(=O)O (stereo partly drawn) [Example 1, N-[(1-RS,2RS)-1-methyl-2-(4-nitrophenyl)-3-{5-(phenylcarbamoyl)-2-furyl}propyl]-N-(2-naphthylmethyl)carbamoylmethylsuccinic acid]	–	0.6
C[C@H]([C@H](Cc1cccc(C(=O)Nc2ccccc2)c1)c1ccc(Cl)cc1)N(Cc1ccc2ccccc2c1)C(=O)CC(CC(=O)O)C(=O)O (stereo partly drawn) [Example 10, N-{(1RS,2RS)-2-(4-chlorophenyl)-1-methyl-3-(3-phenylcarbamoylphenyl)propyl}-N-(2-naphthylmethyl)carbamoylmethylsuccinic acid]	–	1.8
